Experimental findings from ChEMBL document CHEMBL2331474, “Development of a selective peptide macrocycle inhibitor of coagulation factor XII toward the generation of a safe antithrombotic therapy” (J Med Chem, 2013) are described below.

Numbered stars: 1 amine (or outer) side, 2 acyl side, 3 side chain; on linkers, the order of the positions; unused ones are H or OH. Bridge positions count the residues as written; N and C are the ends. Peptide text beside a SMILES is read from it. TBMB = c1c(C[*:1])cc(C[*:3])cc1C[*:2]

The Ki is a dissociation constant, usually derived from enzyme kinetics or from competition with a known ligand.

The target of one assay is T1, Coagulation factor XII (Homo sapiens, UniProt P00748).
T1 sequence (P00748 whole entry): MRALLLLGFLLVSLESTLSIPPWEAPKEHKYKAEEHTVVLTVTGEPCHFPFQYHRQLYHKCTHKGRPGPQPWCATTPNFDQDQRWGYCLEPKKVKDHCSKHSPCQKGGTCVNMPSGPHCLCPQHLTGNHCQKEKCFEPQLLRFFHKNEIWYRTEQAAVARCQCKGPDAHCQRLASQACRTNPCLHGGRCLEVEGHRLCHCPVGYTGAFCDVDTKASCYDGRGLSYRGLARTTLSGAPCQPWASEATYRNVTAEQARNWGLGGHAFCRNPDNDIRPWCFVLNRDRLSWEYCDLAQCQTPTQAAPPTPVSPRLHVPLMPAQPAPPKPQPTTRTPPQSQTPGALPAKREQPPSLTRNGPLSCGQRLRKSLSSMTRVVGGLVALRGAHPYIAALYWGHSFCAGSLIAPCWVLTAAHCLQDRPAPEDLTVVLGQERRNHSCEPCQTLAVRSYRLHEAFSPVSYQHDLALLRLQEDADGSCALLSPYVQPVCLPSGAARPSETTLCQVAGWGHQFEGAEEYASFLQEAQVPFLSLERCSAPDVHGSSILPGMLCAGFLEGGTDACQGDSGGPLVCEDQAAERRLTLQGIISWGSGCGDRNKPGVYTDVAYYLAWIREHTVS
Put plainly: Inhibition of human biotinylated beta factor 12a expressed in Escherichia coli TG1 using Z-Gly-Gly-Arg-AMC as substrate assessed as residual activity by fluorometric analysis.

The target of a further assay is Plasminogen (Homo sapiens, UniProt P00747). As to the kind of experiment: Inhibition of human plasmin using H-D-Val-Leu-Lys-AMC as substrate assessed as residual activity by fluorescence plate reader analysis.
In assay [1] the target is T2, Coagulation factor XII (Homo sapiens) (UniProt P00748).
T2 sequence (whole entry): T1 sequence (P00748 whole entry)
As to the kind of experiment: Inhibition of factor 12 in human plasma assessed as decrease in residual activity relative to control.

Assay [2] deals with T2, Coagulation factor XII (Homo sapiens). As to the kind of experiment: Inhibition of factor 12 in human plasma assessed as residual activity at 20 uM relative to control.
The target is the same in assay [3]. As to the kind of experiment: Inhibition of factor 12 in human plasma assessed as residual activity at 200 uM relative to control.
The target is the same in assay [4]. Put plainly: Inhibition of factor 12 in human plasma assessed as residual activity at 10 uM relative to control.
The test system of a further assay is Plasma. As to the kind of experiment: Inhibition of intrinsic coagulation in human plasma assessed as increase in activated partial […] time. The class given is functional, cell-free.
The target of assay [5] is T2, Coagulation factor XII (Homo sapiens). Put plainly: Inhibition of factor 12 in human plasma assessed as residual activity at 500 uM relative to control.
For assay [6] the target is unchanged. Put plainly: Inhibition of factor 12 in human plasma assessed as residual activity at 100 uM relative to control.
Assay [7] has the same target. As to the kind of experiment: Inhibition of factor 12 in human plasma assessed as residual activity at 50 uM relative to control.
Another assay addresses Plasma kallikrein (Homo sapiens, UniProt P03952). As to the kind of experiment: Inhibition of human PK using Z-Phe-Arg-AMC as substrate assessed as residual activity by fluorometric analysis.
The target of assay [8] is Urokinase-type plasminogen activator (Homo sapiens, UniProt P00749). As to the kind of experiment: Inhibition of human uPA using Z-Gly-Gly-Arg-AMC as substrate assessed as residual activity by fluorometric analysis.
In a further assay the target is Serine protease 1 (Homo sapiens, UniProt P07477). As to the kind of experiment: Inhibition of human trypsin using Z-Gly-Gly-Arg-AMC as substrate assessed as residual activity by fluorescence plate reader analysis.
The target of assay [9] is Tissue-type plasminogen activator (Homo sapiens, UniProt P00750). As to the kind of experiment: Inhibition of human tPA using Z-Gly-Gly-Arg-AMC as substrate assessed as residual activity by fluorometric analysis.
The next assay concerns the target Prothrombin (Homo sapiens, UniProt P00734). As to the kind of experiment: Inhibition of human thrombin using Z-Gly-Gly-Arg-AMC as substrate assessed as residual activity by fluorescence plate reader analysis.
A further assay has as its target Coagulation factor XI (Homo sapiens, UniProt P03951). As to the kind of experiment: Inhibition of human coagulation factor 11a using Boc-Phe-Ser-Arg-AMC as substrate assessed as residual activity by fluorometric analysis.

Chain of Plasminogen (P00747 97-580 limits assumed): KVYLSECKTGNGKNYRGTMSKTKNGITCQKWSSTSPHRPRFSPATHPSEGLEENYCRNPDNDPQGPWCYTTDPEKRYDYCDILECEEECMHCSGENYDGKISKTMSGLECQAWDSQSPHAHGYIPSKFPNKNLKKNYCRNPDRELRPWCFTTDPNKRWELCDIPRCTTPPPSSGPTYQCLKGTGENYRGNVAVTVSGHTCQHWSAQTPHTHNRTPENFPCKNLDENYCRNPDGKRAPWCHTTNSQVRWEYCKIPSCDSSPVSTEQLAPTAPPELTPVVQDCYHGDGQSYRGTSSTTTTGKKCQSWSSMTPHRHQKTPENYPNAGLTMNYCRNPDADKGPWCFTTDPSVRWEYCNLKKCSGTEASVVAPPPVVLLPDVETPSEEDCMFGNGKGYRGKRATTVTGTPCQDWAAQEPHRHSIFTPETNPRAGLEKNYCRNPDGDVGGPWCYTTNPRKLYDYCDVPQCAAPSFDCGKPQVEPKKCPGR
Chain of Plasminogen (P00747 581-810 limits assumed): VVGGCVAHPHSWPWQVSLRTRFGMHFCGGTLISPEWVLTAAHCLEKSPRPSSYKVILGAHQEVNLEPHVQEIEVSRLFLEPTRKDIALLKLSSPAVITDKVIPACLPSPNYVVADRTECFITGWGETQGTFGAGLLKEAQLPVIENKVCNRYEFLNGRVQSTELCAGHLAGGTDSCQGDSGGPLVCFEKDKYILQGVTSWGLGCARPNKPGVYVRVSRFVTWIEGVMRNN
Chain of Tissue-type plasminogen activator (P00750 whole entry): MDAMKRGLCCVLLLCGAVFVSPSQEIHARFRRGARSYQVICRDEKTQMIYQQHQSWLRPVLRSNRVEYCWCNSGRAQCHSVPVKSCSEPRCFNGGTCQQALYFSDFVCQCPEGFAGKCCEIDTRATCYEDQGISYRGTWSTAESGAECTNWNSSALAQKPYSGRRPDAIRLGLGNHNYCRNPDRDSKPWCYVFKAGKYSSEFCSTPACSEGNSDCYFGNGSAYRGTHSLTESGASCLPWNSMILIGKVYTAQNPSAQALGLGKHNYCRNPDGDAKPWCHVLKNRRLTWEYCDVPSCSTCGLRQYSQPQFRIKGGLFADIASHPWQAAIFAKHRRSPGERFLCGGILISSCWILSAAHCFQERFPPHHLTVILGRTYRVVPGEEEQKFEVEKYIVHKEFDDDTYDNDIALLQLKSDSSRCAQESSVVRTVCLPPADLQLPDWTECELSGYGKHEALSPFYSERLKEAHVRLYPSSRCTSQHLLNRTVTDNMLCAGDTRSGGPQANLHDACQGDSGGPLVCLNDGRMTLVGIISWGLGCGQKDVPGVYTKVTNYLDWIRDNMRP
Chain of Coagulation factor XI (P03951 19-387 limits assumed): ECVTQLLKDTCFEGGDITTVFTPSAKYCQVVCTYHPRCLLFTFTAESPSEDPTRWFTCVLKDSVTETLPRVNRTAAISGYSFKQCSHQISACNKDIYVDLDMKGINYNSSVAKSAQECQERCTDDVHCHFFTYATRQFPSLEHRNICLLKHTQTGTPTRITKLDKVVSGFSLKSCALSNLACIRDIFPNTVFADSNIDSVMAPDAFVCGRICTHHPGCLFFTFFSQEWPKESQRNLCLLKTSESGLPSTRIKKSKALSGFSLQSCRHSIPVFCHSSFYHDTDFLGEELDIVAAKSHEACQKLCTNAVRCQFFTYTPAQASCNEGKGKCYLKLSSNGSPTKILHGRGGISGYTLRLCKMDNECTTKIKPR
Chain of Coagulation factor XI (P03951 388-625 limits assumed): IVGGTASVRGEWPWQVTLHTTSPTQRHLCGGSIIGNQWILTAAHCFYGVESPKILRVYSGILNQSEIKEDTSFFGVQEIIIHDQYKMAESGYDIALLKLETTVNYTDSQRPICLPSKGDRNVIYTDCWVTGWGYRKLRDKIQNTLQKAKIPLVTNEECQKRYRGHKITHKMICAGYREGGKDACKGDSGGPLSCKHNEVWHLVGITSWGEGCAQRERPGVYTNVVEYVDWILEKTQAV
Chain of Serine protease 1 (P07477 whole entry): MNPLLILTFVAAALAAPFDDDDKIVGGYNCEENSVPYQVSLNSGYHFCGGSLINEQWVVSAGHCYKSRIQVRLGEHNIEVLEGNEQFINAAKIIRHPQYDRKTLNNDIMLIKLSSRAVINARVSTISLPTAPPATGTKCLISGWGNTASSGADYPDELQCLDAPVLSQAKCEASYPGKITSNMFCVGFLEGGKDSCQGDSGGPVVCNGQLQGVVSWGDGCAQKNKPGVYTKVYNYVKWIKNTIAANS
Chain of Plasma kallikrein (P03952 20-390 limits assumed): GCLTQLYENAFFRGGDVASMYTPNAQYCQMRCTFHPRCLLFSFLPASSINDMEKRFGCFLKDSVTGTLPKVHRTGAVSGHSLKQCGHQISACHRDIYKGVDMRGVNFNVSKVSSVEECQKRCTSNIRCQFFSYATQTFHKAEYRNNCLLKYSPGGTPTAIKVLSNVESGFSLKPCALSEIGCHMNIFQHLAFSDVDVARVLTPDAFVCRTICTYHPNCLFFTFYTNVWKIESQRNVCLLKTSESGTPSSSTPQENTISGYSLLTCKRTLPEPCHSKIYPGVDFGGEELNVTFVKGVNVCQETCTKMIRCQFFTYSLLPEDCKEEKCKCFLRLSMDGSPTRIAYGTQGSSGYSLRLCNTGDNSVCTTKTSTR
Chain of Plasma kallikrein (P03952 391-638 limits assumed): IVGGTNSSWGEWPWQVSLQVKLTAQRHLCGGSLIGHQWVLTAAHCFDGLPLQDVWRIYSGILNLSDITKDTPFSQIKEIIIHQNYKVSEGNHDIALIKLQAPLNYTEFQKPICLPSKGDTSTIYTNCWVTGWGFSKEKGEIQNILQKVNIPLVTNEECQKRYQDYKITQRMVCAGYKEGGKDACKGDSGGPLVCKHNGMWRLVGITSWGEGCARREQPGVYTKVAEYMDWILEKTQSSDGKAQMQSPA

With `CC(C)C[C@H](NC(=O)[C@H](CS)NC(=O)[C@H](Cc1ccc(O)cc1)NC(=O)[C@@H](NC(=O)[C@H](CCC(N)=O)NC(=O)[C@@H]1CCCN1C(=O)[C@H](CS)NC(=O)[C@@H]1CCCN1C(=O)[C@H](CCCNC(=N)N)NC(=O)[C@H](C)NC(=O)[C@H](CC(=O)O)NC(=O)[C@H](CS)NC(=O)[C@H](C)N)[C@@H](C)O)C(=O)O` (H-ACDARPCPQTYCL-OH), the inhibition constant (Ki) on Coagulation factor XII was 20.5 µM; at Plasminogen, greater than 120 µM.
For `C[C@H](NC(=O)[C@H](CC(N)=O)NC(=O)[C@H](CS)NC(=O)[C@@H](N)CCC(N)=O)C(=O)N[C@@H](CCCNC(=N)N)C(=O)N1CCC[C@H]1C(=O)N[C@@H](CS)C(=O)N1CCC[C@H]1C(=O)N[C@@H](CO)C(=O)N[C@@H](CO)C(=O)N[C@@H](Cc1ccc(O)cc1)C(=O)N[C@@H](CS)C(=O)N[C@@H](CCCNC(=N)N)C(=O)O` (H-QCNARPCPSSYCR-OH), the inhibitory constant (Ki) on Coagulation factor XII amounted to 4.7 µM; at Plasminogen, 118 µM.
The corresponding values for `CC(C)C[C@H](NC(=O)[C@@H]1CCCN1C(=O)[C@H](CS)NC(=O)[C@@H]1CCCN1C(=O)[C@H](CCCN=C(N)N)NC(=O)[C@H](C)NC(=O)[C@H](C)NC(=O)[C@H](CS)NC(=O)CN)C(=O)N[C@H](C(=O)N[C@@H](C)C(=O)N[C@@H](CS)C(=O)N[C@@H](Cc1c[nH]c2ccccc12)C(=O)O)[C@@H](C)O` (H-GCAARPCPLTACW-OH) are 33.5 µM and greater than 120 µM.
The matching figures for `CSCC[C@H](NC(=O)[C@H](CS)NC(=O)CN)C(=O)NCC(=O)N[C@@H](CCCNC(=N)N)C(=O)N1CCC[C@H]1C(=O)N[C@@H](CS)C(=O)N1CCC[C@H]1C(=O)N[C@H](C(=O)N[C@@H](CO)C(=O)N[C@@H](Cc1ccc(O)cc1)C(=O)N[C@@H](CS)C(=O)N[C@@H](Cc1ccccc1)C(=O)O)C(C)C` (H-GCMGRPCPVSYCF-OH): 5 µM and greater than 120 µM.
The corresponding values for `CSCC[C@H](NC(=O)[C@@H]1CCCN1C(=O)[C@H](CS)NC(=O)[C@@H]1CCCN1C(=O)[C@H](CCCN=C(N)N)NC(=O)CNC(=O)[C@H](CC(C)C)NC(=O)[C@H](CS)NC(=O)CN)C(=O)N[C@@H](C)C(=O)N[C@@H](Cc1ccc(O)cc1)C(=O)N[C@@H](CS)C(=O)N[C@@H](CO)C(=O)O` (H-GCLGRPCPMAYCS-OH) are 5 µM and greater than 120 µM.
For `C[C@@H]1NC(=O)[C@@H]2CCCN2C(=O)[C@@H]2CCCN2C(=O)[C@@H]2CSCc3cc(cc(c3)CSC[C@@H](C(=O)NCC(=O)O)NC(=O)[C@H](Cc3ccc(O)cc3)NC1=O)CSC[C@H](NC(=O)CN)C(=O)NCC(=O)NCC(=O)N[C@@H](CCCNC(=N)N)C(=O)N1CCC[C@H]1C(=O)N2` (H-GCGGRPCPPAYCG-OH; linker 2-7-12 via TBMB), the inhibition result (in assay [1]; in the assay on Plasma) was “Dose-dependent effect” throughout. For the same compound, the Activity was 89% in assay [2]; 42% in assay [3]; 95% in [4]; 20% in [5]; 51% in assay [6]; 70% in assay [7].
Consider `CC(C)C[C@H](NC(=O)[C@H](CCCNC(=N)N)NC(=O)[C@H](Cc1ccccc1)NC(=O)[C@H](C)NC(=O)[C@H](CS)NC(=O)CNC(=O)[C@H](CCC(N)=O)NC(=O)[C@@H](NC(=O)[C@@H](NC(=O)[C@H](CS)NC(=O)[C@@H](N)[C@@H](C)O)[C@@H](C)O)[C@@H](C)O)C(=O)N[C@@H](CS)C(=O)N[C@@H](CO)C(=O)O` (H-TCTTQGCAFRLCS-OH), for which, on Coagulation factor XII, the inhibitory constant (Ki) is greater than 75 µM.
On to `CC(C)C[C@H](NC(=O)[C@H](C)NC(=O)[C@H](CC(C)C)NC(=O)[C@@H]1CCCN1C(=O)[C@H](CS)NC(=O)[C@@H]1CCCN1C(=O)[C@H](CCCNC(=N)N)NC(=O)[C@H](C)NC(=O)[C@H](Cc1c[nH]c2ccccc12)NC(=O)[C@H](CS)NC(=O)CN)C(=O)N[C@@H](CS)C(=O)N[C@@H](CCC(N)=O)C(=O)O` (H-GCWARPCPLALCQ-OH), for which the values for the Ki on Coagulation factor XII and at Plasminogen were 10.2 µM and greater than 120 µM, respectively.
The corresponding values for `CC(C)C[C@H](NC(=O)[C@@H]1CCCN1C(=O)[C@H](CS)NC(=O)[C@@H]1CCCN1C(=O)[C@H](CCCNC(=N)N)NC(=O)CNC(=O)[C@H](Cc1cnc[nH]1)NC(=O)[C@H](CS)NC(=O)CN)C(=O)N[C@@H](CCC(N)=O)C(=O)N[C@@H](Cc1ccc(O)cc1)C(=O)N[C@@H](CS)C(=O)N[C@@H](CCCCN)C(=O)O` (H-GCHGRPCPLQYCK-OH) are 11.2 µM and 14.2 µM.
Consider `CC(C)[C@H](N)C(=O)N[C@@H](CS)C(=O)N[C@H](C(=O)N[C@@H](CCC(N)=O)C(=O)N[C@@H](CCCCN)C(=O)N[C@@H](Cc1ccccc1)C(=O)N[C@@H](CS)C(=O)N[C@@H](Cc1c[nH]c2ccccc12)C(=O)N[C@@H](CCCNC(=N)N)C(=O)NCC(=O)N[C@@H](Cc1c[nH]c2ccccc12)C(=O)N[C@@H](CS)C(=O)N1CCC[C@H]1C(=O)O)C(C)C` (H-VCVQKFCWRGWCP-OH), for which, at Coagulation factor XII, the Ki is greater than 75 µM.
In the case of `N=C(N)NCCC[C@H](NC(=O)CNC(=O)[C@H](CO)NC(=O)[C@H](CS)NC(=O)[C@@H](N)CO)C(=O)N[C@@H](CCCNC(=N)N)C(=O)N[C@@H](CS)C(=O)N1CCC[C@H]1C(=O)N1CCC[C@H]1C(=O)N[C@@H](CO)C(=O)N[C@@H](Cc1ccc(O)cc1)C(=O)N[C@@H](CS)C(=O)N[C@@H](CCCCN)C(=O)O` [SCSGRRCPPSYCK] (H-SCSGRRCPPSYCK-OH), the Ki is 7.8 µM on Coagulation factor XII and 3.3 µM at Plasminogen.
Take `C[C@@H]1NC(=O)[C@@H]2CCCN2C(=O)[C@@H]2CCCN2C(=O)[C@@H]2CSCc3cc(cc(c3)CSC[C@H](NC(=O)[C@@H](N)CO)C(=O)NCC(=O)NCC(=O)N[C@@H](CCCNC(=N)N)C(=O)N3CCC[C@H]3C(=O)N2)CSC[C@@H](C(=O)NCC(N)=O)NC(=O)[C@H](Cc2ccc(O)cc2)NC1=O` (H-SCGGRPCPPAYCG-NH2; linker 2-7-12 via TBMB): at Plasminogen, the inhibitory constant (Ki) was 4.3 µM.
Turning to `C[C@@H]1NC(=O)[C@@H]2CCCN2C(=O)[C@@H]2CCCN2C(=O)[C@@H]2CSCc3cc(cc(c3)CSC[C@@H](C(=O)NCC(=O)O)NC(=O)[C@H](Cc3ccc(O)cc3)NC1=O)CSC[C@H](NC(=O)CN)C(=O)NCC(=O)NCC(=O)N[C@@H](CCCN=C(N)N)C(=O)N1CCC[C@H]1C(=O)N2` (H-GCGGRPCPPAYCG-OH; linker 2-7-12 via TBMB), the Ki on Plasma kallikrein was greater than 120 µM; in assay [8], greater than 120 µM; on Serine protease 1 it was greater than 120 µM; at Coagulation factor XII, 1.2 µM; in [9], greater than 120 µM; on Plasminogen, greater than 120 µM. Moreover, the inhibition constant (Ki) at Prothrombin and at Coagulation factor XI was greater than 120 µM throughout.
Take `C[C@@H]1NC(=O)[C@@H]2CCCN2C(=O)[C@@H]2CCCN2C(=O)[C@@H]2CSCc3cc(cc(c3)CSC[C@H](NC(=O)[C@@H](N)CO)C(=O)NCC(=O)NCC(=O)N[C@@H](CCCNC(=N)N)C(=O)N3CCC[C@H]3C(=O)N2)CSC[C@@H](C(=O)N[C@@H](CCCCN)C(=O)O)NC(=O)[C@H](Cc2ccc(O)cc2)NC1=O` (H-SCGGRPCPPAYCK-OH; linker 2-7-12 via TBMB): the Ki is greater than 120 µM on Plasma kallikrein; greater than 120 µM in assay [8]; greater than 120 µM at Serine protease 1; 3.1 µM at Coagulation factor XII; greater than 120 µM in assay [9]; 8.3 µM on Plasminogen. Moreover, the Ki on Prothrombin and on Coagulation factor XI was greater than 120 µM each time.
For the compound `C[C@H](NC(=O)[C@@H]1CCCN1C(=O)[C@@H]1CCCN1C(=O)[C@H](CS)NC(=O)[C@@H]1CCCN1C(=O)[C@H](CCCN=C(N)N)NC(=O)CNC(=O)CNC(=O)[C@H](CS)NC(=O)[C@@H](N)CO)C(=O)N[C@@H](Cc1ccc(O)cc1)C(=O)N[C@@H](CS)C(=O)N[C@@H](CCCCN)C(=O)O` (H-SCGGRPCPPAYCK-OH), the values for the Ki on Coagulation factor XII and on Plasminogen were 3.1 µM and 8.3 µM, respectively.
